Test results reported in PMC6368365, “Didehydro-Cortistatin A Inhibits HIV-1 by Specifically Binding to the Unstructured Basic Region of Tat” (mBio, 2019).

System: recombinant Tat transactivation of HIV-1 transcription in OM10.1 cells
Assay: Transactivation assay with recombinant Tat in OM10.1 cell model of HIV-1 latency
Format: cell-based
Conditions: Tat 1 μg, dCA 250 nM
From the text: The production of functional recombinant HIV-1 Tat in Escherichia coli is not trivial as the proper folding of Tat is extremely important for activity, and when expressed by itself, Tat agglomerates mostly because of oxidation of the cysteine residues in the cysteine region. Tat can also adhere to different surfaces and anionic polymers via its charged and hydrophobic residues ([21], [22]). We produced and purified recombinant HIV Tat HXB3 (residues 1 to 89) with a 6×His tag in the C-terminus in E. coli. For this, we have partially optimized the arginine codon usage and changed the rare AGA into codon CGT at arginine positions 7, 53, 56, and 87 of Tat (Fig. 1A). […] After Tat purification using nickel affinity chromatography followed by size exclusion filtration, Tat protein size was analyzed by SDS-PAGE followed by Coomassie blue staining (Fig. 1B). The specificity of the bands was confirmed by Western blotting using anti-Tat serum and anti-His antibody (Fig. 1B). The purity of Tat was further verified by size exclusion chromatography and high-performance liquid chromatography (HPLC) (Fig. 1C and D). […]
FIG 1 Purity and activity of the monomeric His-tagged Tat HXB3 and analysis of its direct binding to dCA. […] Statistical significance was determined using one-way ANOVA with post hoc Tukey’s test. ns, not significant; ***, P < 0.0001; *, P < 0.01. […]

SMILES	inhibition of recombinant Tat transactivation (HIV mRNA)
C[C@@](Cc1ccc(O)c(O)c1)(NN)C(=O)O.O [SCM, S-(−)-carbidopamonohydrate, reference compound]	no activity
CN(C)C1CC23CCC4(O2)C(=CCC2(C)C(c5ccc6ccncc6c5)=CCC24)C=C3C(O)C1O (centres unmarked) [dCA, didehydro-cortistatin A]	inhibited transcriptional activity of Tat
